The pIC50 is the IC50 on a negative log10 scale, so that one unit is a factor of ten.

In US12209102B2, “Heterocyclic compounds and uses thereof” (Kumquat Biosciences Inc., priority 2022, dated 2025) one finds IC50 data, which are given here for 11 compounds.

pIC50: −log10 of the molar value.

Test [1] has as its target T1, K-Ras WT (Homo sapiens, UniProt P01116).
T1 construct: made in house; host or cells: E. coli BL21 (DE3)
The experiment in a line: HTRF resonance energy transfer assay, K-Ras WT / SOS1 interaction. It counts as biochemical. To be noted: HTRF assay of Example 5; read-out: IC50 against K-Ras WT. In short, it runs like this:
(§1)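 Buffer about 5 mM HEPES pH 7.4 with ~150 mM NaCl, ~1 mM DTT, 0.05% BSA, 0.0025% (v/v) Igepal. Protein constructs used at molarity matching the IC50 range studied (e.g. ~500 nM). FRET between tagged K-Ras and hSOS1 measured after short incubation.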

Test [2] has as its target T2, K-Ras G12D (Homo sapiens, UniProt P01116, G12D).
T2 construct: made in house; host or cells: E. coli BL21 (DE3)
Briefly: HTRF resonance energy transfer assay, K-Ras G12D / SOS1 interaction. It counts as biochemical. To be noted: HTRF assay of Example 5; read-out: IC50 against K-Ras G12D. In short, it runs like this:
as §1
Background: Time-resolved FRET reads energy transfer from a long-lived donor to a nearby acceptor.

Test [3] deals with T3, K-Ras G12S (Homo sapiens, UniProt P01116, G12S).
T3 construct: made in house; host or cells: E. coli BL21 (DE3)
Briefly: HTRF resonance energy transfer assay, K-Ras G12S / SOS1 interaction. Format: biochemical. To be noted: HTRF assay of Example 5; read-out: IC50 against K-Ras G12S. In short, it runs like this: as §1

Test [4] deals with T4, K-Ras G12V (Homo sapiens, UniProt P01116, G12V).
T4 construct: made in house; host or cells: E. coli BL21 (DE3)
Briefly: HTRF resonance energy transfer assay, K-Ras G12V / SOS1 interaction. Format: biochemical. As to conditions: HTRF assay of Example 5; read-out: IC50 against K-Ras G12V. The essentials:
as §1

The subject of test [5] is SW620 cells. Briefly: Ras cellular assay, growth of cells with K-Ras G12V mutation (CellTiter-Glo). Format: cell-based. To be noted: Homo sapiens, SW-620; cell growth, Example 9, G12V mutation; read-out: IC50 against SW620 cells. As for the experimental part:
For example, this assay can be also used to assess a selective growth inhibition of a mutant Ras protein relative to a wildtype, or relative to a different mutant Ras protein.
SW620 (ATCC CCL-227) and Capan-1 (ATCC HTB-79) cell lines comprise a G12V mutation and can be used to assess Ras cellular signaling in vitro, e.g., in response to the compounds herein. SW620 culture medium is prepared with RPMI-1640 and 10% heat-inactivated FBS. Capan-1 culture medium is prepared with RPMI-1640 and 10% heat-inactivated FBS. A CellTiter-Glo (CTG) luminescent based assay (Promega) is used to assess growth of the cells, as a measurement of the ability of the compounds herein to inhibit Ras signaling in the cells. The cells (e.g., 800 per well) are seeded in their respective culture medium in standard tissue culture-treated 384-well format plates (Falcon #08-772-116) or ultra-low attachment surface 384-well format plates (S-Bio #MS-9384WZ). The day after plating, cells are treated with a dilution series (e.g., a 10 point 3-fold dilution series) of the compounds herein (e.g., approximately 40 μL final volume per well). Cell viability can be monitored (e.g., approximately 6 days later) according to the manufacturer's recommended instructions, where the CellTiter-Glo reagent is added (e.g., approximately 10 μL), vigorously mixed, covered, and placed on a plate shaker (e.g., approximately for 20 min) to ensure sufficient cell lysis prior to assessment of luminescent signal. The IC50 values are determined using the four parameter fit. The resulting IC50 value is a measurement of the ability of the compounds herein to reduce cell growth of Ras-driven cells (e.g., tumor cell lines) in vitro and/or in vivo.
On the technique in general: In ATP-based viability assays light output follows the ATP content of the culture.

T4 sequence (P01116 1-188 isoform P01116-2 G12V): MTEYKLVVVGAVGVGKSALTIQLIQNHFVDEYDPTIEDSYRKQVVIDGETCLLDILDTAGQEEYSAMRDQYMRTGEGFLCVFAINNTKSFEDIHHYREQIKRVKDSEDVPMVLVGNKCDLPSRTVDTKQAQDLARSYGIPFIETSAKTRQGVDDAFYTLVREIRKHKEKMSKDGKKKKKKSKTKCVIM
T1 sequence (P01116 1-188 isoform P01116-2): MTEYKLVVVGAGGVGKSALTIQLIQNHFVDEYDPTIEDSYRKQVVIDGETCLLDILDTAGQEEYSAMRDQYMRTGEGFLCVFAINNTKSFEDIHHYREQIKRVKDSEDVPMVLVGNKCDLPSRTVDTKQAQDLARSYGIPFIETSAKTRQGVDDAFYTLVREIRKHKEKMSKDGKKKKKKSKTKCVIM
T2 sequence (P01116 1-188 isoform P01116-2 G12D): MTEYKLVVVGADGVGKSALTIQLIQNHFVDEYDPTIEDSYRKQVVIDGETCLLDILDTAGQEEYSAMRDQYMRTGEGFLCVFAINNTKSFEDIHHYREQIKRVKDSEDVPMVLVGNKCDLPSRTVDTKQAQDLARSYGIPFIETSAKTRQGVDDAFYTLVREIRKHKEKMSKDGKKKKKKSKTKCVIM
T3 sequence (P01116 1-188 isoform P01116-2 G12S): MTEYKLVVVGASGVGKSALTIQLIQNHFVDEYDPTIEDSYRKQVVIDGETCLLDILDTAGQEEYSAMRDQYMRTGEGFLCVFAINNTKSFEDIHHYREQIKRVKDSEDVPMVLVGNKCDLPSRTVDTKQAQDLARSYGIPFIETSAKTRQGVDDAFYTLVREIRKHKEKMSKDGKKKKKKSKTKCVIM

For `Cn1nc(N)cc1CN1CCOc2c(Cl)c(-c3ccc(F)c4sc(N)c(C#N)c34)c(F)c3nc(OC[C@@]45CCCN4C[C@H](F)C5)nc1c23` [Compound 770, 2-amino-4-(4-((3-amino-1-methyl-1H-pyrazol-5-yl)methyl)-8-chloro-10-fluoro-2-(((2R,7aS)-2-fluorotetrahydro-1H-pyrrolizin-7a(5H)-yl)methoxy)-5,6-dihydro-4H-[1,4]oxazepino[5,6,7-de]quinazolin-9-yl)-7-fluorobenzo[b]thiophene-3-carbonitrile], the pIC50 in test [1] was more than 7.00; in test [2] it was more than 7.00; in test [3], more than 7.00; in test [4] it was more than 7.00; in test [5] it was more than 5.30.

Take `N#Cc1c(N)sc2c(F)ccc(-c3c(Cl)c4c5c(nc(OC[C@@]67CCCN6C[C@H](F)C7)nc5c3F)N(C3CCCC3O)CCO4)c12` (stereo partly drawn) [Compound 808, 2-amino-4-(8-chloro-10-fluoro-2-(((2R,7aS)-2-fluorotetrahydro-1H-pyrrolizin-7a(5H)-yl)methoxy)-4-(2-hydroxycyclopentyl)-5,6-dihydro-4H-[1,4]oxazepino[5,6,7-de]quinazolin-9-yl)-7-fluorobenzo[b]thiophene-3-carbonitrile]: the pIC50 is more than 7.00 in test [1]; more than 7.00 in test [2]; more than 7.00 in test [3]; more than 7.00 in test [4]; more than 5.30 in test [5].

Regarding `CC1Oc2c(Cl)c(-c3ccc(F)c4sc(N)c(C#N)c34)c(F)c3nc(OC[C@@]45CCCN4C[C@H](F)C5)nc(c23)N(CC(F)F)[C@H]1C(C)(C)O` (stereo partly drawn) [Compound 810, 2-amino-4-((5R)-8-chloro-4-(2,2-difluoroethyl)-10-fluoro-2-(((2R,7aS)-2-fluorotetrahydro-1H-pyrrolizin-7a(5H)-yl)methoxy)-5-(2-hydroxypropan-2-yl)-6-methyl-5,6-dihydro-4H-[1,4]oxazepino[5,6,7-de]quinazolin-9-yl)-7-fluorobenzo[b]thiophene-3-carbonitrile], the pIC50 in test [1] is more than 7.00; in test [2] it was more than 7.00; in test [3] it was more than 7.00; in test [4], more than 7.00; in test [5] it was more than 5.30.

Take `N#Cc1c(N)sc2c(F)ccc(-c3c(Cl)c4c5c(nc(OC[C@@]67CCCN6C[C@H](F)C7)nc5c3F)N(CC3CCCN3C(=O)C3CN3)CCO4)c12` (stereo partly drawn) [Compound 811, 2-amino-4-(4-((1-(aziridine-2-carbonyl)pyrrolidin-2-yl)methyl)-8-chloro-10-fluoro-2-(((2R,7aS)-2-fluorotetrahydro-1H-pyrrolizin-7a(5H)-yl)methoxy)-5,6-dihydro-4H-[1,4]oxazepino[5,6,7-de]quinazolin-9-yl)-7-fluorobenzo[b]thiophene-3-carbonitrile]: the pIC50 in test [1] was more than 7.00; in test [2], more than 7.00; in test [3], more than 7.00; in test [4], more than 7.00; in test [5], more than 5.30.

Regarding `C[C@H]1COc2c(Cl)c(-c3ccc(F)c4sc(N)c(C#N)c34)c(F)c3nc(OC[C@@]45CCCN4C[C@H](F)C5)nc(c23)N1CC1CC1C#N` (stereo partly drawn) [Compound 818, 2-amino-4-((5S)-8-chloro-4-((2-cyanocyclopropyl)methyl)-10-fluoro-2-(((2R,7aS)-2-fluorotetrahydro-1H-pyrrolizin-7a(5H)-yl)methoxy)-5-methyl-5,6-dihydro-4H-[1,4]oxazepino[5,6,7-de]quinazolin-9-yl)-7-fluorobenzo[b]thiophene-3-carbonitrile], the negative-log IC50 (pIC50) in test [1] is more than 7.00; in test [2], more than 7.00; in test [3] it was more than 7.00; in test [4] it was more than 7.00; in test [5], more than 5.30.

Turning to `N#Cc1c(N)sc2c(F)ccc(-c3c(Cl)c4c5c(nc(OC[C@@]67CCCN6C[C@H](F)C7)nc5c3F)N(CC3CC3C#N)[C@@H](C(F)F)CO4)c12` (stereo partly drawn) [Compound 853, 2-amino-4-((5R)-8-chloro-4-((2-cyanocyclopropyl)methyl)-5-(difluoromethyl)-10-fluoro-2-(((2R,7aS)-2-fluorotetrahydro-1H-pyrrolizin-7a(5H)-yl)methoxy)-5,6-dihydro-4H-[1,4]oxazepino[5,6,7-de]quinazolin-9-yl)-7-fluorobenzo[b]thiophene-3-carbonitrile], the pIC50 in test [1] is more than 7.00; in test [2], more than 7.00; in test [3], more than 7.00; in test [4], more than 7.00; in test [5], more than 5.30.

In the case of `N#Cc1c(N)sc2c(F)ccc(-c3c(Cl)c4c5c(nc(OC[C@@]67CCCN6C[C@H](F)C7)nc5c3F)N(C3CCC(N)C3)CCO4)c12` (stereo partly drawn) [Compound 907, 2-amino-4-(4-(3-aminocyclopentyl)-8-chloro-10-fluoro-2-(((2R,7aS)-2-fluorotetrahydro-1H-pyrrolizin-7a(5H)-yl)methoxy)-5,6-dihydro-4H-[1,4]oxazepino[5,6,7-de]quinazolin-9-yl)-7-fluorobenzo[b]thiophene-3-carbonitrile], the pIC50 in test [1] is more than 7.00; in test [2], more than 7.00; in test [3] it was more than 7.00; in test [4] it was more than 7.00; in test [5] it was more than 5.30.

On to `N#Cc1c(N)sc2c(F)ccc(-c3c(Cl)c4c5c(nc(OC[C@@]67CCCN6C[C@H](F)C7)nc5c3F)N(CC(F)F)[C@@H](CNC(=O)[C@H]3CN3)CO4)c12` [Compound 1053, (2R)-N-(((5S)-9-(2-amino-3-cyano-7-fluorobenzo[b]thiophen-4-yl)-8-chloro-4-(2,2-difluoroethyl)-10-fluoro-2-(((2R,7aS)-2-fluorotetrahydro-1H-pyrrolizin-7a(5H)-yl)methoxy)-5,6-dihydro-4H-[1,4]oxazepino[5,6,7-de]quinazolin-5-yl)methyl)aziridine-2-carboxamide], for which the pIC50 in test [1] is more than 7.00; in test [2], more than 7.00; in test [3], more than 7.00; in test [4] it was more than 7.00; in test [5], more than 5.30.

For `N#Cc1c(N)sc2c(F)ccc(-c3c(Cl)c4c5c(nc(OC[C@@]67CCCN6C[C@H](F)C7)nc5c3F)N(C3CC3)[C@@H](CNC=O)CO4)c12` [Compound 1084, N-(((5S)-9-(2-amino-3-cyano-7-fluorobenzo[b]thiophen-4-yl)-8-chloro-4-cyclopropyl-10-fluoro-2-(((2R,7aS)-2-fluorotetrahydro-1H-pyrrolizin-7a(5H)-yl)methoxy)-5,6-dihydro-4H-[1,4]oxazepino[5,6,7-de]quinazolin-5-yl)methyl)formamide], the pIC50 in test [1] is more than 7.00; in test [2], more than 7.00; in test [3] it was more than 7.00; in test [4] it was more than 7.00; in test [5], more than 5.30.

Consider `N#Cc1c(N)sc2c(F)ccc(-c3c(Cl)c4c5c(nc(OC[C@@]67CCCN6C[C@H](F)C7)nc5c3F)N([C@H]3CNC[C@@H]3F)CCO4)c12` [Compound 1085, 2-amino-4-(8-chloro-10-fluoro-4-((3S,4S)-4-fluoropyrrolidin-3-yl)-2-(((2R,7aS)-2-fluorotetrahydro-1H-pyrrolizin-7a(5H)-yl)methoxy)-5,6-dihydro-4H-[1,4]oxazepino[5,6,7-de]quinazolin-9-yl)-7-fluorobenzo[b]thiophene-3-carbonitrile], for which the pIC50 is more than 7.00 in test [1]; more than 7.00 in test [2]; more than 7.00 in test [3]; more than 7.00 in test [4]; more than 5.30 in test [5].

For the compound `CN1c2nc(OC[C@@]34CCCN3C[C@H](F)C4)nc3c(F)c(-c4ccc(F)c5sc(N)c(C#N)c45)c(Cl)c(c23)OCC[C@H]1C1CC1` [Compound 1209, 2-amino-4-((5S)-9-chloro-5-cyclopropyl-11-fluoro-2-(((2R,7aS)-2-fluorotetrahydro-1H-pyrrolizin-7a(5H)-yl)methoxy)-4-methyl-4,5,6,7-tetrahydro-[1,5]oxazocino[4,3,2-de]quinazolin-10-yl)-7-fluorobenzo[b]thiophene-3-carbonitrile], the pIC50 in test [1] is more than 7.00; in test [2], more than 7.00; in test [3] it was more than 7.00; in test [4] it was more than 7.00; in test [5], more than 5.30.
